Assay results: ChEMBL document CHEMBL5046238, “Synthesis, biological evaluation, and in silico studies of potential activators of apoptosis and carbonic anhydrase inhibitors on isatin-5-sulfonamide scaffold” (Eur J Med Chem, 2022)
The source made the active and inactive calls. The calls are words filed in the database; no cut-off is given here.

Tests used:
MDA-MB-231 [1] = experiment: Antiproliferative activity against human MDA-MB-231 cells assessed as growth inhibition under normoxia conditions measured after 72 hrs by MTT assay; details: MDA-MB-231, 72 h
MCF7 [2] = experiment: Antiproliferative activity against human MCF7 cells assessed as growth inhibition measured after 72 hrs by MTT assay; details: MCF7, 72 h
[3] = Cytotoxicity against human MCF-10A assessed as cell viability under hypoxia conditions measured after 72 hrs by MTT assay; format: toxicity, cell-based; details: MCF-10A cells
MCF7 [4] = experiment: Antiproliferative activity against human MCF7 cells assessed as growth inhibition under hypoxia conditions measured after 72 hrs by MTT assay; details: MCF7, 72 h
T47D [5] = experiment: Antiproliferative activity against human T47D cells assessed as growth inhibition under hypoxia conditions measured after 72 hrs by MTT assay
HCT-116 [6] = experiment: Antiproliferative activity against human HCT-116p53KO subline assessed as growth inhibition measured after 72 hrs by MTT assay; details: HCT-116, 72 h
[7] = Cytotoxicity against human MCF-10A assessed as cell viability under normoxia conditions measured after 72 hrs by MTT assay; format: toxicity, cell-based; details: MCF-10A cells
[8] = Antiproliferative activity against human K562/4 cells assessed as growth inhibition measured after 72 hrs by MTT assay; details: K562/4, 72 h
MDA-MB-231 [9] = experiment: Antiproliferative activity against human MDA-MB-231 cells assessed as growth inhibition under hypoxia conditions measured after 72 hrs by MTT assay; details: MDA-MB-231, 72 h
K562 = experiment: Antiproliferative activity against human K562 cells assessed as growth inhibition measured after 72 hrs by MTT assay; details: K562, 72 h
HCT-116 [10] = experiment: cells; details: Homo sapiens, HCT-116, 72 h
Description: Antiproliferative activity against human HCT-116 assessed as growth inhibition measured after 72 hrs by MTT assay

T47D [11] = experiment: Antiproliferative activity against human T47D cells assessed as growth inhibition under normoxia conditions measured after 72 hrs by MTT assay
Carbonic anhydrase 9 = Carbonic anhydrase 9 (Homo sapiens, UniProt Q16790); experiment: Inhibition of human CA9 preincubated for 15 mins by phenol red dye based stopped flow CO2 hydration assay
Carbonic anhydrase 12 = Carbonic anhydrase 12 (Homo sapiens, UniProt O43570); experiment: Inhibition of human CA12 preincubated for 15 mins by phenol red based stopped flow CO2 hydration assay
MCF7 [12] = experiment: Induction of apoptosis in human MCF7 cells assessed as […] in BAD protein expression upto 5 uM measured after 48 hrs by immunoblotting analysis; format: functional, cell-based; details: dose microM <=5, time 48.0 hrs
MCF7 [13] = experiment: Induction of apoptosis in human MCF7 cells assessed as NFkappaB activity upto 5 uM measured after 48 hrs by immunoblotting analysis; format: functional, cell-based; details: dose microM <=5, time 48.0 hrs
MCF7 [14] = experiment: Induction of apoptosis in human MCF7 cells assessed as decrease in Bcl2 expression upto 5 uM measured after 48 hrs by immunoblotting analysis; format: functional, cell-based; details: dose microM <=5, time 48.0 hrs
MCF7 [15] = experiment: Induction of apoptosis in human MCF7 cells assessed as decrease in ERalpha protein expression upto 5 uM measured after 48 hrs by immunoblotting analysis; format: functional, cell-based; details: dose microM <=5, time 48.0 hrs
MCF7 [16] = experiment: Induction of apoptosis in human MCF7 cells assessed as PARP cleavage upto 5 uM measured after 48 hrs by immunoblotting analysis; format: functional, cell-based; details: dose microM <=5, time 48.0 hrs

Sequence of Carbonic anhydrase 12 (O43570 whole entry): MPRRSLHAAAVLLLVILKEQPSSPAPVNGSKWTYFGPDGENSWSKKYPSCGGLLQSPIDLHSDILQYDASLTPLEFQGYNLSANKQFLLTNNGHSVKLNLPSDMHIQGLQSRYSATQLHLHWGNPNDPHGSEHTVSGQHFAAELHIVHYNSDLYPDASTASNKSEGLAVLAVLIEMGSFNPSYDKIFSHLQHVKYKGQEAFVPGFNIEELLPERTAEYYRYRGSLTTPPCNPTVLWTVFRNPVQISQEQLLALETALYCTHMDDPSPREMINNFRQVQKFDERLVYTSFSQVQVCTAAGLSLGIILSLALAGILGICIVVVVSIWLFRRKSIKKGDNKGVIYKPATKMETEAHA

SMILES	IC50 (MDA-MB-231 [1]) [µM]	IC50 (MCF7 [2]) [µM]	IC50 at 72 h [3] [µM]	IC50 (MCF7 [4]) [µM]	IC50 (T47D [5]) [µM]	IC50 (HCT-116 [6]) [µM]	IC50 at 72 h [7] [µM]	IC50 [8] [µM]	IC50 (MDA-MB-231 [9]) [µM]	IC50 (K562) [µM]	IC50 (HCT-116 [10]) [µM]	IC50 (T47D [11]) [µM]	Ki (Carbonic anhydrase 9) [µM]	Ki (Carbonic anhydrase 12) [µM]	Activity (MCF7 [12])	Activity (MCF7 [13])	Activity (MCF7 [14])	Activity (MCF7 [15])	Activity (MCF7 [16])
COc1ccc(CN2C(=O)C(=O)c3cc(S(N)(=O)=O)ccc32)cc1	28.4	5.1	3.2	4.6	> 50	30	4	43	40.8	9	27	20.7	1.03						
NS(=O)(=O)c1ccc2c(c1)C(=O)C(=O)N2Cc1c(F)c(F)c(F)c(F)c1F		10.2						> 50		8			0.195						
NS(=O)(=O)c1ccc2c(c1)CCC2NC(=O)c1c(F)c(F)c(F)c(F)c1F (centres undefined)	26.6	9.2	> 50	13.1	> 50	45	> 50	18	25.7	12.5	18	> 50							
NS(=O)(=O)c1ccc2c(c1)C(=O)C(=O)N2Cc1cc(C(F)(F)F)ccc1F		12						19.8		9			0.211	> 10					
NS(=O)(=O)c1ccc2c(c1)C(=O)C(=O)N2Cc1ccc(Cl)cc1Cl	7	7.8		5.6	21.8	20		18	8.4	8.8	17.5	12	0.163						
Cc1ccc(CN2C(=O)C(=O)c3cc(S(N)(=O)=O)ccc32)cc1C	7.4	4.4	6	3.9	11.1	15	6.2	17	9.4	8	17	9.4	0.276						
NS(=O)(=O)c1ccc2c(c1)C(=O)C(=O)N2Cc1c(F)cccc1F		22.7						40		17			1.03						
NS(=O)(=O)c1ccc2c(c1)C(=O)C(=O)N2Cc1c(F)cccc1Cl		12.8						18		14.5			0.204						
NS(=O)(=O)c1ccc2c(c1)C(=O)C(=O)N2Cc1ccccc1		20.1						> 50		18			1.53						
NS(=O)(=O)c1ccc2c(c1)C(=O)C(=O)N2Cc1ccc(Cl)cc1	22	6	6.2	4.9	42.5	30	6.9	50	19.1	14	23	18.4	0.26						
NS(=O)(=O)c1ccc2c(c1)C(=O)C(=O)N2CCc1ccccc1		31.8						36		17.2			1.81						
NS(=O)(=O)c1ccc2c(c1)C(=O)C(=O)N2Cc1cccc(C(F)(F)F)c1	14.2	8.4		5.9	> 50	30		19.8	17.6	9.8	17.7	6.3	0.244	> 10					
NS(=O)(=O)c1ccc2c(c1)C(=O)C(=O)N2Cc1ccc(F)cc1		17.3						> 50		36			0.24						
COc1cccc2c1C(=O)c1c(O)c3c(c(O)c1C2=O)C[C@@](O)(C(=O)CO)C[C@@H]3O[C@H]1C[C@H](N)[C@H](O)[C@H](C)O1 [DOXORUBICIN]	0.33	0.31	0.051	0.37	0.18	0.8	0.047		0.25		0.3	0.16							
NS(=O)(=O)c1ccc2c(c1)C(=O)C(=O)N2Cc1cccc(F)c1		26.8						50		15.5			2.53	> 10					
NS(=O)(=O)c1ccc2c(c1)C(=O)C(=O)N2Cc1cc(F)cc(F)c1		26.5						37		35			1.32						
NS(=O)(=O)c1ccc2c(c1)C(=O)C(=O)N2Cc1ccncc1		> 50						> 50		> 50			1.68						
NS(=O)(=O)c1ccc2c(c1)C(=O)C(=O)N2Cc1ccc(Cl)c(Cl)c1	21.8	6.1	7.3	5.9	> 50	31	6.6	> 50	18.5	17	32	17.1	1.46						
NS(=O)(=O)c1ccc2c(c1)C(=O)C(=O)N2		> 50						> 50		> 50			1.46						
O=C1C(=O)N(Cc2ccc(Cl)c(Cl)c2)c2ccccc21	> 50	> 50		> 50		> 50		48	> 50	20	38				Active	inactive	Active	inactive	Active
NS(=O)(=O)c1ccc2c(c1)C(=O)C(=O)N2Cc1ccc([N+](=O)[O-])cc1		> 50						> 50		> 50			2.04						
NS(=O)(=O)c1ccc2c(c1)C(=O)C(=O)N2Cc1ccc(C(F)(F)F)cc1	27.1	8.2		5.5	32.6	34		50	16.3	16	30	22.6	0.811						
NS(=O)(=O)c1ccc2c(c1)C(=O)C(=O)N2Cc1ccc(F)cc1Cl		13.3						32		11			0.292						
NS(=O)(=O)c1ccc2c(c1)C(=O)C(=O)N2Cc1ccccc1F		8.7						20		18			1.11						
